These results are taken from patent US20220372020A1, “CRYSTALLINE FORMS OF PHTHALAZINONE COMPOUND” (Idience Co., Ltd., priority 2020, published 2022).

A short description of data set [1]: Long-term stability purity test (total impurities by HPLC). It is filed as physicochemical. The following applies: relative humidity 60±5%; for Total impurities content: HPLC. The method, then:
Crystalline Form A of the compound of Formula 1 prepared in Example 1 was stored under long-term storage conditions (25±2° C., and Relative humidity: 60±5%). Samples were taken after 3 months, 6 months, 9 months, 12 months, 18 months, and even 24 months from the onset of the storage to measure total impurities content by high performance liquid chromatography (HPLC).

Data set [2] in a line: Storage behaviour of the amorphous form. It is filed as physicochemical. The text has this: The obtained amorphous form readily absorbed water during the storage, i.e., it was hygroscopic, whereby the color turned yellow. It was thus confirmed that the amorphous form was not suitable for use as a medicinal drug substance.
The subject of data set [3] is poly(ADP-ribose) polymerase (PARP). The following applies: as disclosed in US'973; cited from earlier work.

Each structure is given as a SMILES string.

Consider `Cl.O=C(c1cc(Cc2n[nH]c(=O)c3ccccc23)ccc1F)N1CC(CNC2CC2)C1` [Crystalline Form A, 4-[3-(3-[(cyclopropylamino)methyl]azetidine-1-carbonyl)-4-fluorobenzyl]phthalazin-1(2H)-one hydrochloride], for which the Total impurities content is recorded as 0.15% wt % in data set [1] (3 months, 25±2° C.); 0.16% wt % in data set [1] (6 months, 25±2° C.); 0.15% wt % in data set [1] (9 months, 25±2° C.); 0.14% wt % in data set [1] (12 months, 25±2° C.); 0.19% wt % in data set [1] (18 months, 25±2° C.); 0.14% wt % in data set [1] (Initial, long-term storage 25±2° C.). For the same molecule, the “Stability under long-term storage conditions (in words)” value in data set [1] (25±2° C., up to 24 months) is reported as “high stability”.

With `Cl.O=C(c1cc(Cc2n[nH]c(=O)c3ccccc23)ccc1F)N1CC(CNC2CC2)C1` [amorphous form, 4-[3-(3-[(cyclopropylamino)methyl]azetidine-1-carbonyl)-4-fluorobenzyl]phthalazin-1(2H)-one hydrochloride], in data set [2], the “Colour change during storage” value was “turned yellow” and the “Water absorption during storage (hygroscopicity)” value is recorded as “hygroscopic”.

For the molecule `Cl.O=C(c1cc(Cc2n[nH]c(=O)c3ccccc23)ccc1F)N1CC(CNC2CC2)C1` [compound of Formula 1, 4-[3-(3-[(cyclopropylamino)methyl]azetidine-1-carbonyl)-4-fluorobenzyl]phthalazin-1(2H)-one hydrochloride], in data set [3], the PARP inhibitory activity entry is on record as “PARP inhibitory activity”.
